Measurements: ChEMBL document CHEMBL1799910, “Optimization of 1,2,3,4-tetrahydroacridin-9(10H)-ones as antimalarials utilizing structure-activity and structure-property relationships” (J Med Chem, 2011)
In brackets after ≈: the same amount, converted by molar mass.

Tests used:
[1] = Stability in mouse liver microsomes; assay type: ADME, Microsome; conditions: liver microsomes
[2] = tested on: Plasmodium falciparum; assay: Resistance index, ratio of EC50 for chloroquine, mefloquine, pyrimethamine and atovaquone-resistant Plasmodium falciparum TM90-C2B to EC50 for chloroquine and pyrimethamine-resistant Plasmodium falciparum W2; assay type: functional
[3] = tested on: Plasmodium falciparum; assay: Antimalarial activity against chloroquine and pyrimethamine-resistant Plasmodium falciparum W2 infected in human A positive erythrocytes after 72 hrs by SYBR Green I assay; assay type: functional, organism-based; conditions: W2, 72 h
[4] = Cytotoxicity index, ratio of EC50 for mouse J774 cells to EC50 for chloroquine, mefloquine, pyrimethamine and atovaquone-resistant Plasmodium falciparum TM90-C2B; assay type: cell-based; conditions: read-out: Ratio EC50
[5] = Aqueous solubility of compound at pH 7.4 by HPLC analysis; conditions: buffer
[6] = Permeability of the compound by PAMPA method at pH 7.4; assay type: ADME; conditions: read-out: permeability
[7] = Partition coefficient, log D of the compound at pH 7.4 by HPLC analysis; conditions: octanol/water
[8] = tested on: Plasmodium falciparum; assay: Antimalarial activity against chloroquine, mefloquine, pyrimethamine and atovaquone-resistant Plasmodium falciparum TM90-C2B infected in human A positive erythrocytes after 72 hrs by SYBR Green I assay; assay type: functional, organism-based
[9] = tested on: J774; assay: Cytotoxicity against mouse J774 cells after 72 hrs by Cell titer 96 aqueous one solution cell proliferation assay; assay type: cell-based; conditions: J774, 72 h

SMILES	half-life [1]	Ratio EC50 [2]	EC50 [3]	selectivity ratio [4]	solubility [5]	Papp [6]	logD [7]	EC50 [8]	EC50 [9]
O=c1c2c([nH]c3ccccc13)CCCC2	18.2 min	0.45	719 nM	≥ 100	24 µM (≈ 4.78 µg/mL)	10 ×10⁻⁶ cm/s	3	325 nM	> 40000 nM
COc1ccc2c(=O)c3c([nH]c2c1)CCC(F)(F)C3	15.8 min	1.02	343 nM	≥ 100	14 µM (≈ 3.71 µg/mL)	39 ×10⁻⁶ cm/s	1.6	351 nM	> 10000 nM
O=c1c2c([nH]c3ccc(-c4ccc(C(F)(F)F)cc4)cc13)CCSC2	11.2 min	2.9	101 nM	≥ 100	10 µM (≈ 3.61 µg/mL)	< 1 ×10⁻⁶ cm/s	2.4	293 nM	> 10000 nM
COc1ccc2c(=O)c3c([nH]c2c1)CC(C)(C)CC3	24.8 min	0.32	355 nM	≥ 100	92 µM (≈ 23.7 µg/mL)	64 ×10⁻⁶ cm/s	2.2	112 nM	> 40000 nM
O=c1c2c([nH]c3ccc(Cl)cc13)CCC(F)(F)C2	40.8 min	1.52	148 nM	≥ 100	4 µM (≈ 1.08 µg/mL)	62 ×10⁻⁶ cm/s	2	226 nM	> 2000 nM
COc1ccc2c(=O)c3c([nH]c2c1)CCCC3	6.8 min	1.11	89.9 nM	≥ 100	82 µM (≈ 18.8 µg/mL)	25 ×10⁻⁶ cm/s	1.9	99.9 nM	> 40000 nM
COc1cc2[nH]c3c(c(=O)c2cc1Cl)CC(F)(F)CC3	8.5 min	0.07	76.7 nM	≥ 100	10 µM (≈ 3 µg/mL)	107 ×10⁻⁶ cm/s	2.1	5.6 nM	> 10000 nM
COc1cc2[nH]c3c(c(=O)c2cc1Cl)C[S+]([O-])CC3 (stereo unspecified)	990 min		4710 nM				1.3	1360 nM	> 40000 nM
Cc1cc(Oc2ccc(OC(F)(F)F)cc2)ccc1-c1ccc2[nH]c3c(c(=O)c2c1)CSCC3	15.1 min	11.8	27.7 nM	≥ 100	7 µM (≈ 3.38 µg/mL)	< 1 ×10⁻⁶ cm/s	3.6	326 nM	> 5000 nM
O=c1c2c([nH]c3cc(-c4ccc(Oc5ccc(OC(F)(F)F)cc5)cc4)ccc13)CCCC2	173 min	0.75	12.2 nM	≥ 100	0.1 µM (≈ 0.0451 µg/mL)	18 ×10⁻⁶ cm/s	3.8	9.1 nM	> 100 nM
O=c1c2c([nH]c3cc(F)cc(F)c13)CCCC2	3.6 min	2.72	16.5 nM	≥ 100	3 µM (≈ 0.706 µg/mL)	13 ×10⁻⁶ cm/s	1.5	45 nM	> 2000 nM
COc1ccc2c(=O)c3c([nH]c2c1)CCC(C)(C)C3	77 min	3.22	54.3 nM	≥ 100	61 µM (≈ 15.7 µg/mL)	88 ×10⁻⁶ cm/s	2.2	175 nM	> 40000 nM
O=c1c2c([nH]c3cc(C(F)(F)F)ccc13)CCCC2		0.16	120 nM	≥ 100	158 µM (≈ 42.2 µg/mL)	73 ×10⁻⁶ cm/s	2.7	19 nM	> 20000 nM
O=c1c2c([nH]c3cc(Br)ccc13)CCCC2		1.48	77.7 nM	≥ 100	14 µM (≈ 3.89 µg/mL)	70 ×10⁻⁶ cm/s	2.8	115 nM	> 10000 nM
CC(C)(C)c1ccc2[nH]c3c(c(=O)c2c1)CCCC3		4.13	78.7 nM	≥ 100	5 µM (≈ 1.28 µg/mL)	165 ×10⁻⁶ cm/s	2.8	325 nM	> 5000 nM
COc1ccc2c(=O)c3c([nH]c2c1)CCC3		0.54	1130 nM	≥ 100	91 µM (≈ 19.6 µg/mL)	11 ×10⁻⁶ cm/s	1.5	610 nM	> 40000 nM
O=c1c2c([nH]c3ccc(-c4ccc(COc5ccccc5)cc4)cc13)CCSC2		15.9	44.5 nM	≥ 100	1 µM (≈ 0.4 µg/mL)	7 ×10⁻⁶ cm/s	2.8	706 nM	> 1000 nM
CC1(C)CCc2[nH]c3ccc(Cl)cc3c(=O)c2C1		0.46	256 nM	≥ 100	1 µM (≈ 0.262 µg/mL)	63 ×10⁻⁶ cm/s	2.6	118 nM	> 40000 nM

SMILES	half-life [1]	Ratio EC50 [2]	EC50 [3]	selectivity ratio [4]	solubility [5]	Papp [6]	logD [7]	EC50 [8]	EC50 [9]
Cc1ccc2c(=O)c3c([nH]c2c1)CCC(C)(C)C3		11.9	166 nM	≥ 100	75 µM (≈ 18.1 µg/mL)	82 ×10⁻⁶ cm/s	2.4	1980 nM	> 40000 nM
Cc1cccc2c(=O)c3c([nH]c12)CCCC3	6.4 min	0.4	2200 nM	≥ 100	47 µM (≈ 10 µg/mL)	26 ×10⁻⁶ cm/s	1.9	888 nM	> 40000 nM
COc1cc2[nH]c3c(c(=O)c2cc1C)CSCC3		0.86	113 nM	≥ 100	14 µM (≈ 3.66 µg/mL)	68 ×10⁻⁶ cm/s	0.9	96.9 nM	> 10000 nM
O=c1c2c([nH]c3cc(Cl)c(Cl)cc13)CCCC2		1.06	321 nM	≥ 100	1 µM (≈ 0.268 µg/mL)	180 ×10⁻⁶ cm/s	2.6	341 nM	> 1000 nM
O=c1c2c([nH]c3cc(Cl)ccc13)CCCC2		0.89	137 nM	≥ 100	15 µM (≈ 3.51 µg/mL)	75 ×10⁻⁶ cm/s	2.2	122 nM	> 10000 nM
O=c1c2c([nH]c3ccc(-c4cccnc4)cc13)CCSC2		1.11	7620 nM	≥ 100	37 µM (≈ 10.9 µg/mL)	3 ×10⁻⁶ cm/s	0.8	8490 nM	> 20000 nM
COc1cc2c(=O)c3c([nH]c2cc1Cl)CCCC3		0.33	35.2 nM	≥ 100	33 µM (≈ 8.7 µg/mL)	24 ×10⁻⁶ cm/s	1.3	11.5 nM	> 20000 nM
COc1ccc2c(=O)c3c([nH]c2c1OC)CCCC3		0.55	6340 nM	≥ 100	175 µM (≈ 45.4 µg/mL)	19 ×10⁻⁶ cm/s	1.8	3460 nM	> 20000 nM
CCOc1ccc2[nH]c3c(c(=O)c2c1)CCCC3		0.85	265 nM	≥ 100	5 µM (≈ 1.22 µg/mL)	52 ×10⁻⁶ cm/s	1.9	226 nM	> 5000 nM
O=c1c2c([nH]c3cc([N+](=O)[O-])ccc13)CCCC2		0.91	1050 nM	≥ 100	3 µM (≈ 0.733 µg/mL)	63 ×10⁻⁶ cm/s	1.5	959 nM	> 2000 nM
Cc1ccc2c(=O)c3c([nH]c2c1C)CCCC3		0.58	3920 nM	≥ 100	8 µM (≈ 1.82 µg/mL)	42 ×10⁻⁶ cm/s	2.2	2280 nM	> 5000 nM
Cc1ccc2c(=O)c3c([nH]c2c1)CCCC3	20.1 min	1.01	150 nM	≥ 100	89 µM (≈ 19 µg/mL)	27 ×10⁻⁶ cm/s	2	152 nM	> 40000 nM
O=c1c2c([nH]c3c(F)ccc(F)c13)CCCC2		1.64	804 nM	≥ 100	159 µM (≈ 37.4 µg/mL)	12 ×10⁻⁶ cm/s	1.3	1320 nM	> 40000 nM
Cc1cc(Cl)ccc1-c1ccc2[nH]c3c(c(=O)c2c1)CSCC3	8.4 min	0.67	34.6 nM	≥ 100	2 µM (≈ 0.684 µg/mL)	< 1 ×10⁻⁶ cm/s	2.4	23.2 nM	> 2000 nM
O=c1c2c([nH]c3cc(Cl)cc(Cl)c13)CCCC2		1.1	87.8 nM	≥ 100	8 µM (≈ 2.15 µg/mL)	134 ×10⁻⁶ cm/s	2.5	96.2 nM	> 5000 nM
CC1(C)CCc2c([nH]c3c(Cl)cccc3c2=O)C1		>1.42	6700 nM	≥ 100	20 µM (≈ 5.24 µg/mL)	407 ×10⁻⁶ cm/s	3	> 9550 nM	> 20000 nM
Cc1cccc2c(=O)c3c([nH]c12)CCC(C)(C)C3		0.67	791 nM	≥ 100	38 µM (≈ 9.17 µg/mL)	90 ×10⁻⁶ cm/s	2.3	531 nM	> 40000 nM
